In PMC10450872 (ACS Central Science, 2023):
Several values for one entry are separate records, joined by “and”; a condition that tells them apart may be missing. Identical values can stand only once.

What was measured:
hKOR (OPRK1) = biological target: T1, hKOR (OPRK1) (Homo sapiens, UniProt P41145); test: cell-based; details: for Emax: CHO, read-out: cAMP Emax
T1 construct: 3HA (triple haemagglutinin tag); expressed in transfected cells

hKOR [1] = biological target: T2, hKOR (Homo sapiens, UniProt P41145); test: cell-based; details: for Emax: read-out: βarrestin2 Emax; for EC50: βarrestin2 pEC50
T2 construct: β-galactosidase enzyme fragment for EFC (ProLink tag of the PathHunter system; name and presence on the receptor from own knowledge); host or cells: U2OS-β-arrestin2-EFC-hKOR (PathHunter) cells
T2 sequence (P41145 whole entry, the tested form may be a part): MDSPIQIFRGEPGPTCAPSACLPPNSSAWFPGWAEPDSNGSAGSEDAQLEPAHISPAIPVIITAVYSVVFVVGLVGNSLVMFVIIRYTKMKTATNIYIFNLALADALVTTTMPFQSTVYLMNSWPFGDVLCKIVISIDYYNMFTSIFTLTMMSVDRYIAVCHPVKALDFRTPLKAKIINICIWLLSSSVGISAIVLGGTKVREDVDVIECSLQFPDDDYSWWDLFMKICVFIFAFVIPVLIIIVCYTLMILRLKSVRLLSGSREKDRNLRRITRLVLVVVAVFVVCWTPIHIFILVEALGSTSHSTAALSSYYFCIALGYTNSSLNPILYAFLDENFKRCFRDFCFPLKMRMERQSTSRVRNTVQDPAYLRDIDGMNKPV

hKOR [2] = biological target: T2, hKOR; type: cell-based
human MOR (OPRM1) = biological target: T3, human MOR (OPRM1) (Homo sapiens, UniProt P35372); type: cell-based
T3 construct: expressed in transfected cells
T3 sequence (P35372 whole entry): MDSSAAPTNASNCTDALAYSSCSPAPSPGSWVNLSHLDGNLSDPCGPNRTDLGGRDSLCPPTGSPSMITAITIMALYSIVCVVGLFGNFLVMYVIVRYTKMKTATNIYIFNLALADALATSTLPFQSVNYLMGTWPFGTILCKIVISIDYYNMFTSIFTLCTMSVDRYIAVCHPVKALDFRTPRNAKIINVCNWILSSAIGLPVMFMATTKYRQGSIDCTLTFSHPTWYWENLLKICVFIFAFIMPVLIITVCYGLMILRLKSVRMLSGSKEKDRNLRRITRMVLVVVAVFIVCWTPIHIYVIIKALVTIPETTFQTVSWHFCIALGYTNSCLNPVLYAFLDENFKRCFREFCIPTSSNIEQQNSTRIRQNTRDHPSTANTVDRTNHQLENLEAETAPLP

[3] = mean EC50 of inhibition of forskolin-stimulated cAMP accumulation via KOR
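For Emax in this document: 100% = maximum response to 10 µM U69,593.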

T1 sequence (P41145 whole entry): as the sequence (P41145 whole entry, the tested form may be a part) above

Row | Compound | Emax (hKOR (OPRK1)) | EC50 (hKOR (OPRK1); [3]) | Emax (hKOR [1]) | EC50 (hKOR [1]) | Bias Factor (hKOR [2]) | ΔΔLogτ/KA (cAMP/βarr2) (hKOR [2]) | EC50 (hKOR (OPRK1); cAMP pEC50) | increase of potency on replacement of the 3-furyl (hKOR (OPRK1)) | cAMP Emax (hKOR (OPRK1)) | βarrestin2 Emax (hKOR [1]) | selectivity for KOR over MOR (human MOR (OPRM1))
1 | COC(=O)[C@@H]1C[C@H](OC(C)=O)C(=O)[C@@H]2[C@H]3C[C@@H](Sc4ccccc4)CC(=O)[C@@H]3CC[C@]21C [compound 33] | 92% | 96 nM | 131% | 4270 nM | 0.51 | 1.946 |  |  |  |  | 
2 | COC(=O)[C@@H]1C[C@H](OC(C)=O)C(=O)[C@@H]2[C@H]3C[C@@H](c4cccc(C)c4)CC(=O)[C@@H]3CC[C@]21C [compound 30] | 105% | 15 nM | 115% | 794 nM | 1.26 | 0.797 | 14.5 nM |  |  |  | 
3 | COC(=O)C1CC(OC(C)=O)C(=O)C2C3CC(c4ccoc4)CC(=NO)C3CCC12C (centres unmarked) [compound 36] | 105% | 0.4 nM | 83% | 12.9 nM | 2.66 | 0.375 | 0.347 nM |  |  |  | 
4 | COC(=O)[C@@H]1C[C@H](OC(C)=O)C(=O)[C@@H]2[C@H]3C[C@@H](C4=CCCCC4)CC(=O)[C@@H]3CC[C@]21C [compound 32] |  | 0.3 nM |  |  |  |  |  | 20 fold |  |  | 
5 | COC(=O)[C@@H]1C[C@H](OC(C)=O)C(=O)[C@@H]2[C@H]3C[C@@H](c4ccccc4)CC(=O)N[C@@H]3CC[C@]21C [compound 35] | 107% | 46 nM | 67% | 1820 nM | 5.48 | 0.182 |  |  |  |  | 
6 | COC(=O)[C@@H]1C[C@H](OC(C)=O)C(=O)[C@@H]2[C@H]3C[C@@H](c4ccnc5ccccc45)CC(=O)[C@@H]3CC[C@]21C [compound 25] | 95% |  |  |  |  |  | 631 nM |  |  |  | 
7 | C#CC1(O)CC(c2ccccc2)CC2C1CCC1(C)C(C(=O)OC)CC(OC(C)=O)C(=O)C21 (centres unmarked) [40a] |  | 6.9 nM |  | 741 nM | 9.83 and 7.4–9.8 | 0.102 |  |  | 105 | 80 | 
8 | COC(=O)C1CC(OC(C)=O)C(=O)C2C3CC(c4ccoc4)CC(O)C3CCC12C (centres unmarked) [41a] |  | 5.1 nM |  | 123 nM | 1.33 | 0.754 | 5.01 nM |  | 102 | 85 | 
9 | COC(=O)[C@@H]1C[C@H](OC(C)=O)C(=O)[C@@H]2[C@H]3C[C@@H](c4cccnc4)CC(=O)[C@@H]3CC[C@]21C [compound 20] | 105% |  | 88% | 2040 nM | 0.17 | 5.896 | 468 nM |  |  |  | 
10 | COC(=O)[C@@H]1C[C@H](OC(C)=O)C(=O)[C@@H]2[C@H]3C[C@@H](c4cccc(O)c4)CC(=O)[C@@H]3CC[C@]21C [22a] | 97% |  | 81% | 5890 nM | 0.72 | 1.397 | 309 nM |  |  |  | 
11 | COC(=O)[C@@H]1C[C@H](OC(C)=O)C(=O)[C@@H]2[C@H]3CC=CC(=O)[C@@H]3CC[C@]21C [17a] | 96% | > 10000 nM |  |  |  |  | 10700 nM |  |  |  | 
12 | COC(=O)[C@@H]1C[C@H](OC(C)=O)C(=O)[C@@H]2[C@H]3C[C@H](c4cccc(O)c4)CC(=O)[C@@H]3CC[C@]21C [22b] | 95% |  |  |  |  |  | 912 nM |  |  |  | 
13 | CON=C1CC(c2ccccc2)CC2C1CCC1(C)C(C(=O)OC)CC(OC(C)=O)C(=O)C21 (centres unmarked) [compound 38] | 100% |  | 98% | 245 nM | 2.28 | 0.439 | 2.95 nM |  |  |  | 
14 | COC(=O)[C@@H]1C[C@H](OC(C)=O)C(=O)[C@@H]2[C@H]3C[C@@H](c4c[nH]c5ccccc45)CC(=O)[C@@H]3CC[C@]21C [compound 27] | 92% |  | 14% | 2040 nM | 3.96 | 0.252 | 331 nM |  |  |  | 
15 | COC(=O)[C@@H]1C[C@H](OC(C)=O)C(=O)[C@@H]2[C@H]3C[C@@H](c4ccc(C)cc4)CC(=O)[C@@H]3CC[C@]21C [compound 28] | 93% |  | 14% | 1860 nM | 3.88 | 0.258 | 398 nM |  |  |  | 
16 | COC(=O)[C@@H]1C[C@H](OC(C)=O)C(=O)[C@@H]2[C@H]3C[C@@H](c4ccoc4)CC(=O)[C@@H]3CC[C@]21C [compound 1, O6C-20-nor-SalA] | 96% |  | 108% |  | 0.34 |  |  |  |  |  | 
17 | COC(=O)[C@@H]1C[C@H](OC(C)=O)C(=O)[C@@H]2[C@H]3C[C@@H](c4ccsc4)CC(=O)[C@@H]3CC[C@]21C [compound 19] | 101% |  | 105% | 72.4 nM | 1.11 | 0.898 | 1.48 nM |  |  |  | 
18 | COC(=O)C1CC(OC(C)=O)C(=O)C2C3CC(c4ccccc4)CC(=NOC(C)=O)C3CCC12C (centres unmarked) [compound 39] | 105% |  | 83% | 97.7 nM | 5.43 | 0.184 | 1.26 nM |  |  |  | 
19 | COC(=O)C1CC(OC(C)=O)C(=O)C2C3CC(c4ccccc4)CC(=NO)C3CCC12C (centres unmarked) [compound 37] | 105% | 0.4 nM | 80% | 42.7 nM | 8.60 and 7.4–9.8 | 0.116 | 0.417 nM |  |  |  | high selectivity for KOR over MOR was also preserved
20 | COC(=O)C1CC(OC(C)=O)C(=O)C2C3CC(c4ccoc4)CC(O)C3CCC12C (centres unmarked) [41b] | 103% | 0.4 nM | 86% | 14.1 nM | 2.06 | 0.486 | 0.363 nM |  |  |  | 
21 | C#CC1(O)CC(c2ccccc2)CC2C1CCC1(C)C(C(=O)OC)CC(OC(C)=O)C(=O)C21 (centres unmarked) [40b] | 104% | 4.4 nM | 92% | 794 nM | 7.44 and 7.4–9.8 | 0.134 |  |  |  |  | 
22 | COC(=O)[C@@H]1C[C@H](OC(C)=O)C(=O)[C@@H]2[C@H]3C[C@@H](c4cccc(Cl)c4)CC(=O)[C@@H]3CC[C@]21C [compound 31] | 103% | 4.2 nM | 123% | 631 nM | 2.50 | 0.399 | 4.27 nM |  |  |  | 
23 | COC(=O)[C@@H]1C[C@H](OC(C)=O)C(=O)[C@@H]2[C@H]3C[C@@H](c4ccccc4)CC(=O)[C@@H]3CC[C@]21C [24a] | 98% |  | 120% | 219 nM | 0.39 | 2.554 | 9.12 nM |  |  |  | 
24 | COC(=O)[C@@H]1C[C@H](OC(C)=O)C(=O)[C@@H]2[C@H]3C[C@@H](c4ccncc4)CC(=O)[C@@H]3CC[C@]21C [compound 21] | 93% |  | 94% | 3310 nM | 0.23 | 4.409 | 302 nM |  |  |  | 
25 | COC(=O)[C@@H]1C[C@H](OC(C)=O)C(=O)[C@@H]2[C@H]3C[C@H](c4ccoc4)CC(=O)[C@@H]3CC[C@]21C [compound 18] | 91% |  | 91% |  | 0.23 |  |  |  |  |  | 
26 | COC(=O)[C@@H]1C[C@H](OC(C)=O)C(=O)[C@@H]2[C@H]3C[C@H](c4ccccc4)CC(=O)[C@@H]3CC[C@]21C [24b] | 100% |  | 109% | 891 nM | 0.32 | 3.153 | 63.1 nM |  |  |  | 
27 | COC(=O)[C@@H]1C[C@H](OC(C)=O)C(=O)[C@@H]2[C@H]3C[C@@H](c4ccc(Cl)cc4)CC(=O)[C@@H]3CC[C@]21C [compound 29] | 103% |  | 51% | 851 nM | 3.16 | 0.316 | 67.6 nM |  |  |  | 
28 | COC(=O)[C@@H]1C[C@H](OC(C)=O)C(=O)[C@@H]2[C@H]3C[C@@H](c4coc5ccccc45)CC(=O)[C@@H]3CC[C@]21C [compound 26] | 104% |  | 100% | 2340 nM | 1.87 | 0.536 | 41.7 nM |  |  |  | 
29 | COC(=O)[C@@H]1C[C@H](OC(C)=O)C(=O)[C@@H]2[C@H]3C[C@@H](c4ccnc(OC)c4)CC(=O)[C@@H]3CC[C@]21C [compound 23] |  | 3390 nM |  |  |  |  |  |  |  |  | 
